According to patent US20100190824A1, “Novel Substituted Piperidones as HSP Inducers” (priority 2007, published 2010):

Assays:
TNF-α mRNA = assay: Inhibition of LPS-induced TNF-α expression in PMA differentiated THP-1 cells; format: cell-based, Human; conditions: LPS (1 ug/ml) and compound for 4 hours, LPS alone as 100%
Method: The purpose of the present study was to determine the inhibition of lipopolysaccharide(LPS)-induced TNF-α expression in phorbol merstyl ester (PMA) differentiated THP-1 cells.
Human monocytic leukaemia cell line (THP-1), differentiated into macrophage-like cells by PMA treatment was employed. Differentiated cells were treated with either LPS (1 ug/ml) alone or with LPS (1 ug/ml) and compound for 4 hours. Total RNA was isolated and expression of TNF-αmRNA along-with expression of 18S rRNA was monitored by real-time PCR. TNF-α mRNA expression was normalized relative to the expression of 18S rRNA Considering TNF-α expression for cells treated with LPS alone as 100%; the results for test compounds were expressed as % inhibition of TNF-α expression and are as shown in Table 4

HSP70b mRNA = assay: Cellular expression of HSP-70 mRNA in primary mixed neurons (real-time PCR); format: cell-based; conditions: fold induction of HSP70b mRNA relative to vehicle treated control; primary mixed neurons from neonatal rat cerebellum; 4 hours; normalized to 18S rRNA
Method: Experiments set forth in this section were conducted to determine whether the compounds of the present invention are able to elevate the expression of HSP-70 gene in cells.
Hela cell-line or primary mixed neurons derived from neonatal rat cerebellum were employed. Induction was carried out for the indicated dose(s) for 4 hours duration and total RNA was isolated. Expression of HSP70b mRNA along-with expression of 18S rRNA was monitored by real-time PCR. HSP70b mRNA expression was normalized relative to the expression of 18S rRNA.
The results for test compounds were expressed as fold induction of HSP-70 mRNA relative to vehicle treated control and are as shown in Table 2 & 3.

SMILES: CC1(C)CN(Cc2ccccc2)CC(=Cc2ccccn2)C1=O [Compound 1, 1-Benzyl-3,3-dimethyl-5-[1-pyridin-2-yl-methylidene]-piperidin-4-one]
- TNF-alpha Inhibition (TNF-α mRNA): (++++) (>80%)

SMILES: CC1(C)CN(C(=O)OCc2ccccc2)CC(=Cc2ccccn2)C1=O [Compound 2, 3,3-Dimethyl-4-oxo-5-[1-pyridin-2-yl-methylidene]-piperidine-1-carboxylic acid benzyl ester]
- TNF-alpha Inhibition (TNF-α mRNA): (+++) (61-80%)

SMILES: CC1(C)CN(Cc2ccccc2)CC(=Cc2ccc(C(=O)N3CCOCC3)cc2)C1=O [Compound 7, 1-Benzyl-3,3-dimethyl-5-[1-[4-(morpholine-4-carbonyl)-phenyl]-methylidene]-piperidin-4-one]
- TNF-alpha Inhibition (TNF-α mRNA): (+++) (61-80%)

SMILES: CSc1ccc(C=C2CN(Cc3ccccc3)CC(C)(C)C2=O)cc1 [Compound 8, 1-Benzyl-3,3-dimethyl-5-[1-(4-methylsulfanyl-phenyl)-methylidene]-piperidin-4-one]
- TNF-alpha Inhibition (TNF-α mRNA): (++++) (>80%)

SMILES: CSc1ccc(C2/C(=C\c3cccc(N4CCOCC4)n3)C(=O)C(C)(C)CN2Cc2ccccc2)cc1 (stereo not shown) [Compound 42, 1-Benzyl-5,5-dimethyl-2-(4-methylsulfanyl-phenyl)-3-[1-(6-morpholin-4-yl-pyridin-2-yl)-meth-(E)-ylidene]-piperidin-4-one]
- HSP Induction in mixed neuron (HSP70b mRNA): (+++) (9-16 fold)
- TNF-alpha Inhibition (TNF-α mRNA): (++) (41-60%)

SMILES: CC1(C)CN(Cc2ccccc2)C(c2ccc(C(F)(F)F)cc2)C(=Cc2cccc(N3CCOCC3)n2)C1=O (stereo not shown) [Compound 43, 1-Benzyl-5,5-dimethyl-3-[1-(6-morpholin-4-yl-pyridin-2-yl)-methylidene]-2-(4-trifluoromethyl-phenyl)-piperidin-4-one]
- HSP Induction in mixed neuron (HSP70b mRNA): (+++) (9-16 fold)
- TNF-alpha Inhibition (TNF-α mRNA): (++) (41-60%)

SMILES: CC1(C)CN(Cc2ccccc2)C(c2ccc(Cl)c(Cl)c2)C(=Cc2ccccn2)C1=O (stereo not shown) [Compound 45, 1-Benzyl-2-(3,4-dichloro-phenyl)-5,5-dimethyl-3-[1-pyridin-2-yl-methylidene]-piperidin-4-one]
- HSP Induction in mixed neuron (HSP70b mRNA): (++) (5-8 fold)

SMILES: CSc1ccc(C2C(=Cc3ccccn3)C(=O)C(C)(C)CN2Cc2ccccc2)cc1 (stereo not shown) [Compound 46, 1-Benzyl-5,5-dimethyl-2-(4-methylsulfanyl-phenyl)-3-[1-pyridin-2-yl-methylidene]-piperidin-4-one]
- HSP Induction in mixed neuron (HSP70b mRNA): (+++) (9-16 fold)
- TNF-alpha Inhibition (TNF-α mRNA): (++) (41-60%)

SMILES: COc1ccc(CN2CC(C)(C)C(=O)C(=Cc3ccccn3)C2c2ccccc2)cc1 (stereo not shown) [Compound 47, 1-(4-Methoxy-benzyl)-5,5-dimethyl-2-phenyl-3-[1-pyridin-2-yl-methylidene]-piperidin-4-one]
- HSP Induction in mixed neuron (HSP70b mRNA): (++++) (>16 fold)
- TNF-alpha Inhibition (TNF-α mRNA): (+++) (61-80%)

SMILES: COC(=O)N1CC(=Cc2ccccn2)C(=O)C(C)(C)C1Cc1ccc(OC)cc1 (stereo not shown) [Compound 52, 2-(4-Methoxy-benzyl)-3,3-dimethyl-4-oxo-5-[1-pyridin-2-yl-methylidene]-piperidine-1-carboxylic acid methyl ester]
- HSP Induction in mixed neuron (HSP70b mRNA): (++) (5-8 fold)
- TNF-alpha Inhibition (TNF-α mRNA): (++++) (>80%)

SMILES: CC1(C)CN(Cc2cccs2)C(c2ccccc2F)C(=Cc2cccc(N3CCOCC3)n2)C1=O (stereo not shown) [Compound 57, 2-(2-Fluoro-phenyl)-5,5-dimethyl-3-[1-(6-morpholin-4-yl-pyridin-2-yl)-methylidene]-1-thiophen-2-ylmethyl-piperidin-4-one]
- HSP Induction in mixed neuron (HSP70b mRNA): (+) (2-4 fold)

SMILES: CC1(C)CN(Cc2cccs2)C(c2ccccc2F)C(=Cc2ccccn2)C1=O (stereo not shown) [Compound 58, (2-Fluoro-phenyl)-5,5-dimethyl-3-[1-pyridin-2-yl-methylidene]-1-thiophen-2-ylmethyl-piperidin-4-one]
- HSP Induction in mixed neuron (HSP70b mRNA): (+) (2-4 fold)

SMILES: COc1ccc(CN2CC(C)(C)C(=O)C(=Cc3cccc(N4CCOCC4)n3)C2c2ccccc2)cc1 (stereo not shown) [Compound 62, 1-(4-Methoxy-benzyl)-5,5-dimethyl-3-[1-(6-morpholin-4-yl-pyridin-2-yl)-methylidene]-2-phenyl-piperidin-4-one]
- HSP Induction in mixed neuron (HSP70b mRNA): (+) (2-4 fold)

SMILES: Cc1cc(N2CC(=Cc3ccccn3)C(=O)C(C)(C)C2)no1 [Compound 64, 3,3-Dimethyl-1-(5-methyl-isoxazol-3-yl)-5-[1-pyridin-2-yl-methylidene]-piperidin-4-one]
- HSP Induction in mixed neuron (HSP70b mRNA): (++++) (>16 fold)

SMILES: COc1ccc(CC2N(C(=O)NCc3ccccc3)CC(=Cc3ccccn3)C(=O)C2(C)C)cc1 (stereo not shown) [Compound 66, 2-(4-Methoxy-benzyl)-3,3-dimethyl-4-oxo-5-[1-pyridin-2-yl-methylidene]-piperidine-1-carboxylic acid benzylamide]
- HSP Induction in mixed neuron (HSP70b mRNA): (++) (5-8 fold)

SMILES: CC1(C)CN(Cc2ccc(F)cc2)CC(=Cc2cccc(N3CCOCC3)n2)C1=O [Compound 73, 1-(4-Fluoro-benzyl)-3,3-dimethyl-5-[1-(6-morpholin-4-yl-pyridin-2-yl)-methylidene]-piperidin-4-one]
- HSP Induction in mixed neuron (HSP70b mRNA): (+) (2-4 fold)

SMILES: CC1(C)CN(Cc2ccc(F)cc2)C(c2ccccc2)C(=Cc2ccccn2)C1=O (stereo not shown) [Compound 76, 1-(4-Fluoro-benzyl)-5,5-dimethyl-2-phenyl-3-[1-pyridin-2-yl-methylidene]-piperidin-4-one]
- HSP Induction in mixed neuron (HSP70b mRNA): (+) (2-4 fold)

SMILES: CC1(C)CN(Cc2ccc(F)cc2)C(c2ccccc2)C(=Cc2cccc(N3CCOCC3)n2)C1=O (stereo not shown) [Compound 81, 1-(4-Fluoro-benzyl)-5,5-dimethyl-3-[1-(6-morpholin-4-yl-pyridin-2-yl)-methylidene]-2-phenyl-piperidin-4-one]
- HSP Induction in mixed neuron (HSP70b mRNA): (+) (2-4 fold)

SMILES: COc1ccc(CN2CC(C)(C)C(=O)C(=Cc3cccc(N4CCOCC4)n3)C2c2ccccc2F)cc1 (stereo not shown) [Compound 86, 2-(2-Fluoro-phenyl)-1-(4-methoxy-benzyl)-5,5-dimethyl-3-[1-(6-morpholin-4-yl-pyridin-2-yl)-methylidene]-piperidin-4-one]
- HSP Induction in mixed neuron (HSP70b mRNA): (+) (2-4 fold)

SMILES: COc1ccc(C2C(=Cc3cccc(N4CCOCC4)n3)C(=O)C(C)(C)CN2Cc2ccccc2)c(F)c1 (stereo not shown) [Compound 92, 1-Benzyl-2-(2-fluoro-4-methoxy-phenyl)-5,5-dimethyl-3-[1-(6-morpholin-4-yl-pyridin-2-yl)-methylidene]-piperidin-4-one]
- HSP Induction in mixed neuron (HSP70b mRNA): (++) (5-8 fold)

SMILES: CC1(C)CN(CCc2ccccc2)C(c2ccccc2)C(=Cc2ccccn2)C1=O (stereo not shown) [Compound 94, 5,5-Dimethyl-1-phenethyl-2-phenyl-3-[1-pyridin-2-yl-methylidene]-piperidin-4-one]
- HSP Induction in mixed neuron (HSP70b mRNA): (+) (2-4 fold)

SMILES: CC1(C)CN(CCc2ccccc2)C(c2ccccc2)C(=Cc2cccc(N3CCOCC3)n2)C1=O (stereo not shown) [Compound 95, 5,5-Dimethyl-3-[1-(6-morpholin-4-yl-pyridin-2-yl)-methylidene]-1-phenethyl-2-phenyl-piperidin-4-one]
- HSP Induction in mixed neuron (HSP70b mRNA): (++) (5-8 fold)

SMILES: Cc1ccc(CN2CC(C)(C)C(=O)C(=Cc3cccc(N4CCOCC4)n3)C2c2ccccc2)cc1 (stereo not shown) [Compound 232, 5,5-Dimethyl-1-(4-methyl-benzyl)-3-[1-(6-morpholin-4-yl-pyridin-2-yl)-methylidene]-2-phenyl-piperidin-4-one]
- HSP Induction in mixed neuron (HSP70b mRNA): (++) (5-8 fold)
